Five compounds from ChEMBL document CHEMBL5727881, “Pyridone amides as modulators of sodium channels” (2020) can be followed below.

Broadly, the IC50 is the concentration that gives 50% inhibition.

Each structure is given as a SMILES string.

The experiment is described as follows: Electrophysiology Assay: Patch clamp electrophysiology was used to assess the efficacy and selectivity of sodium channel blockers in dorsal root ganglion neurons. Rat neurons were isolated from the dorsal root ganglions and maintained in culture for 2 to 10 days in the presence of NGF (50 ng/ml) (culture media consisted of NeurobasalA supplemented with B27, glutamine and antibiotics). Small diameter neurons (nociceptors, 8-12 μm in diameter) were visually identified and probed with fine tip glass electrodes connected to an amplifier (Axon Instruments). The “voltage clamp” mode was used to assess the compound's IC50 holding the cells at −60 mV. In addition, the “current clamp” mode was employed to test the efficacy of the compounds in blocking action potential generation in response to current injections. The results of these experiments contributed to the definition of the efficacy profile of the compounds. For orientation: The patch-clamp technique gives a direct electrical read-out from membranes.
In the case of `COc1cc(Oc2cc(C(F)(F)F)ccc2C(=O)Nc2cc[nH]c(=O)c2)ccc1F`, the concentration for half-maximal inhibition (IC50) stood at 26 nM. The value for `O=C(Nc1ccn(CCO)c(=O)c1)c1ccc(C(F)(F)F)cc1Oc1ccc(F)cc1` was 2800 nM; that for `COc1ccc(Oc2ccc(F)cc2C(=O)Nc2cc[nH]c(=O)c2)c(C)c1` was 330 nM; that for `O=C(Nc1cc[nH]c(=O)c1)c1ccc(C(F)(F)F)cc1O[C@@H]1CC2CCC1C2` (stereo not given in full) was 765 nM. The result for `COc1cc(C)ccc1Oc1ccc(OC(F)(F)F)cc1C(=O)Nc1cc[nH]c(=O)c1` reads 68 nM.
